Results taken from patent US20080085528A1, “G[…] ASSAYS FOR MEASURING KINETIC AND […]” (Bristol-Myers Squibb Company, priority 2006, published 2008).

Legend:
Assay type in all cases: biochemical
human full-length GK = target: T1, human full-length GK (Homo sapiens, UniProt P35557); test: tandem assay with EDTA quench; details: 12 mM glucose
T1 construct: human full-length GK (15 nM) was incubated with various concentrations of glucose
T1 sequence (P35557 1-466 isoform P35557-2): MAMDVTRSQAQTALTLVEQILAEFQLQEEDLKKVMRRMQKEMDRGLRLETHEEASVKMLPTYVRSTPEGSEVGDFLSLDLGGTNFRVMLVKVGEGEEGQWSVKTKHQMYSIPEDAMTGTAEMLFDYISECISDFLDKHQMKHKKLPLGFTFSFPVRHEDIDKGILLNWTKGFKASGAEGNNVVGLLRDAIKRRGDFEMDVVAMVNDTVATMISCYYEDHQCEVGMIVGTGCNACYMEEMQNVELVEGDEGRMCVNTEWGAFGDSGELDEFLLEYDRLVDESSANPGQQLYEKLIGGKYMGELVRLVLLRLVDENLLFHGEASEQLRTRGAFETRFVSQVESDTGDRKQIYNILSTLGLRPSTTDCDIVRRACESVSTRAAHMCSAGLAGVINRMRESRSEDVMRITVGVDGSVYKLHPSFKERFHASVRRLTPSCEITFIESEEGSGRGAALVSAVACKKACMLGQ
Experimental: The protocol used is essentially as described above with some variation. Briefly, human full-length GK (15 nM) was incubated with various concentrations of glucose in the range from 0.33 to 50 mM in clear bottom 384 well microtiter plates. To initiate the GK reaction, Mg-ATP (3 mM final concentration) was added to the protein in buffer, under the final buffer conditions of 25 mM HEPES, pH 7.1, containing 1 mM DTT and 5% DMSO. The total reaction volume was 20 μl. The reaction was allowed to proceed for ten minutes and was then quenched with 5 μl EDTA (45 mM final).
The components of the secondary reaction, ThioNAD and G6PDH (final concentrations of 650 μM and 3.33 Units, respectively), were then added together in a volume of 25 μl, and a total volume of 50 μl. Absorbance was read and activation calculated as a percentage of background activity, i.e., GK in the presence of DMSO, with background G6P subtracted. Background G6P was determined by pre-quenching GK with EDTA prior to reaction initiation with ATP.
The tandem assay (EDTA quench) was used to assess the activity of GK in the presence of putative GK activator compounds. The above-described tandem assay protocol was followed using a range of activator compound concentrations from 0 to 100 μM.

human hepatic GK [1] = target: T2, human hepatic GK (Homo sapiens, UniProt P35557); test: tandem assay (uncoupled G-6-P detection, heat stop)
T2 sequence (P35557 1-466 isoform P35557-2): T1 sequence (P35557 1-466 isoform P35557-2)
Experimental: Purified human recombinant GK was used to measure the activation of GK activity by glucose and a GK activator (Compound “C”) in the tandem assay. A suitable vehicle (for instance 24% DMSO in pH 7.25 Tris buffer), with or without (control) a GK modulator of interest was incubated with GK (50 μl of a 24 nM stock solution) over a range of concentrations of glucose (for instance from 0.32 to 80 mM) for 30 minutes in a 96-well PCR plate (10 μl). The GK reaction was initiated by addition of Mg-ATP (20 μl). The solution used comprised 12 mM ATP and 16 mM MgCl2. The final assay conditions were 25 mM Tris, pH 7.25, 1 mM DTT and 3% DMSO, 15 nM GK, 3 mM ATP and 4 mM MgCl2. Glucose stock solution (IM) was diluted to generate a dilution series with final glucose concentrations of: 0.2, 0.4, 0.6, 0.8, 1, 1.5, 2, 3, 4, 5, 6, 8, 10, 12, 20 and 50 mM. The total reaction volume per well was about 80 μl.
The GK reaction proceeded for about 10 minutes, and was followed by heating the 96-well plate in a hot water bath (100° C.) for 30 seconds to stop the reaction. […] An aliquot of reaction mixture (typically 50 μl) was then transferred to a second 96 well plate suitable for taking absorbance measurements. […] The reagents and reaction mixture are mixed for 2 minutes, followed by measurement of the absorbance at 405 nm using a plate reader. […]

human hepatic GK [2] = target: T2, human hepatic GK; test: filtration-based assay (direct G-6-P capture by ion-exchange resin); details: 12 mM glucose, FIG. 7
Experimental: Human full-length recombinant GK was used to measure the activation of GK. Human full-length GK (15 nM) was incubated with various concentrations of glucose in the range from 0.33 to 50 mM in the presence of tritiated glucose (3H-glucose [6-^3H], 0.33 μCi) in 96 well microtiter plates. To initiate the GK reaction, Mg-ATP (3 mM final) was added to the protein in buffer, under the final buffer conditions of 25 mM HEPES, pH 7.1, containing 1 mM DTT and 5% DMSO. The total reaction volume was 110 μl. The reaction was allowed to proceed for ten minutes (i.e., the linear portion of the reaction) and was then quenched with 100 mM formic acid (1:1). A 200 μl aliquot of the quenched reaction products was then transferred to wells in a 96-well MultiScreen-GV 96 filtration plate containing 100 μl/well of Bio-rad AG 1-X8 Resin, formate form. The resin was then washed with H2O (1 ml/well), and the GK reaction product (G-6-P) eluted with 1M ammonium formate, pH 5 (200 μl/well). A 50 μl aliquot of this eluate was added to an Optiplate white 96 well plate containing 200 μl of Microscint PS. The plate was sealed and shaken for 5 minutes, and read on a Topcount scintillation counter (Perkin Elmer). The raw counts were converted to product concentration by comparison of the raw counts in the sample wells to wells containing a standard curve having known concentrations of ^3H-glucose-6-phosphate. […]

With `CCOP(=O)(Cc1cnc(NC(=O)[C@H](CC2CCCC2)c2ccc(S(C)(=O)=O)cc2)cn1)OCC` [Compound A, (R)-diethyl (5-(3-cyclopentyl-2-(4-(methylsulfonyl)phenyl)propanamido)pyrazin-2-yl)methylphosphonate] as the compound, how does the AC50 (human full-length GK; FIG. 10) read?
The AC50 was about 0.904 µM.

What about the Emax (human full-length GK; FIG. 10, read-out: maximal activation of background GK activity) of the same compound?
Its Emax is 208%.

What about the “Kcat in the presence of GK activator” value (human hepatic GK [1]; 20 uM activator, control 3% DMSO) of the same compound?
The value was 44 S^−1.

What about the “KM compared to the controls” value (human hepatic GK [1]; in the presence of the activator, FIG. 8) of the same compound?
The value was “substantially lower”.

What about the AC50 (human hepatic GK [2]) of the same compound?
Its AC50 is 7.1 µM.

What about the Emax (human hepatic GK [2]; read-out: maximal activation number (above background)) of the same compound?
The Emax was 228%.
